Reference: patent publication US10906915B2, “Substituted pyrazoloazepin-4-ones and their use as phosphodiesterase inhibitors” (LEO Pharma A/S, priority 2016, dated 2021)
pIC50: −log10 of the molar value. Like-named read-outs stand apart in the source and are kept apart here.

Molecular target: human PDE4D catalytic domain (UniProt no. Q08499) (Homo sapiens (Human), UniProt Q08499)
Test: PDE4 assay (TR-FRET, FAM-cAMP cleavage)
Assay type: biochemical
Settings: read-out: PDE4 IC50 range
Procedure, shortened: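 PDE4D catalytic domain ([…]) was incubated with unlabelled cAMP plus FAM-cAMP and titrated compound, stopped with binding buffer of metal-ion nanoparticles and Tb donor. AMP generation read by TR-FRET; IC50 as 50% inhibition of cleavage versus controls, reported as nM ranges.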

[1] = human PDE4D catalytic domain, molar concentration giving 50% inhibition of substrate cleavage

human PDE4D catalytic domain, sequence (Q08499 380-740 limits assumed): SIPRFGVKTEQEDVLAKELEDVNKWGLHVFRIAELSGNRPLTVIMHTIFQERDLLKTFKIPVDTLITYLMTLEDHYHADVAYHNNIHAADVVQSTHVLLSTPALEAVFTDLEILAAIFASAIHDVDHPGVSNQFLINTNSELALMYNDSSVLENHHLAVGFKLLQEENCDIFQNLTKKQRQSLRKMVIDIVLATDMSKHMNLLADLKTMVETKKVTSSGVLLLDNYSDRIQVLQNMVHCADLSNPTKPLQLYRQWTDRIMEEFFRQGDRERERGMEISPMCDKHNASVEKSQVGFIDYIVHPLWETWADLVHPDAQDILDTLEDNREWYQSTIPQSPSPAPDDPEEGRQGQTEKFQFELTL

Compound	pIC50 [1]	pIC50
CCc1nn(CCCOC(=O)c2ccc(F)cc2Cl)c2c1C(=O)NCC1(CCOCC1)C2 [Example 77, 3-(3-ethyl-4-oxo-spiro[6,8-dihydro-5H-pyrazolo[4,3-c]azepine-7,4′-tetrahydropyran]-1-yl)propyl 2-chloro-4-fluoro-benzoate]	> 7.00	–
CCc1nn(CCCCOC(=O)c2ccc(C(=O)N(C)C)cc2)c2c1C(=O)NCC1(CCOCC1)C2 [Example 380, 4-(3-ethyl-4-oxo-spiro[6,8-dihydro-5H-pyrazolo[4,3-c]azepine-7,4′-tetrahydropyran]-1-yl)butyl 4-(dimethylcarbamoyl)benzoate]	–	6.30 to 7.00
CCc1nn(CC2(COC(=O)c3ccc(F)cc3)COC2)c2c1C(=O)NCC1(CCOCC1)C2 [Example 359, [3-[(3-ethyl-4-oxo-spiro[6,8-dihydro-5H-pyrazolo[4,3-c]azepine-7,4′-tetrahydropyran]-1-yl)methyl]oxetan-3-yl]methyl 4-fluorobenzoate]	–	> 7.00
CCc1nn(C[C@@H](C)COC(=O)c2ccc(S(N)(=O)=O)cc2)c2c1C(=O)NCC1(CCOCC1)C2 [Example 215, [(2R)-3-(3-ethyl-4-oxo-spiro[6,8-dihydro-5H-pyrazolo[4,3-c]azepine-7,4′-tetrahydropyran]-1-yl)-2-methyl-propyl] 4-sulfamoylbenzoate]	> 7.00	–
CCc1nn(C[C@@H](C)COC(=O)c2ccc(C(=O)N3CCOCC3)cc2)c2c1C(=O)NCC1(CCOCC1)C2 [Example 260, [(2R)-3-(3-ethyl-4-oxo-spiro[6,8-dihydro-5H-pyrazolo[4,3-c]azepine-7,4′-tetrahydropyran]-1-yl)-2-methyl-propyl] 4-(morpholine-4-carbonyl)benzoate]	> 7.00	–
CCc1nn(C[C@@H](C)COC(=O)c2cc(F)ccc2C(F)(F)F)c2c1C(=O)NCC1(CCOCC1)C2 [Example 223, [(2R)-3-(3-ethyl-4-oxo-spiro[6,8-dihydro-5H-pyrazolo[4,3-c]azepine-7,4′-tetrahydropyran]-1-yl)-2-methyl-propyl] 5-fluoro-2-(trifluoromethyl)benzoate]	> 7.00	–
CCc1nn(CCCOC(=O)c2ccc(OC)c(C(F)(F)F)c2)c2c1C(=O)NCC1(CCOCC1)C2 [Example 118, 3-(3-ethyl-4-oxo-spiro[6,8-dihydro-5H-pyrazolo[4,3-c]azepine-7,4′-tetrahydropyran]-1-yl)propyI 4-methoxy-3-(trifluoromethyl)benzoate]	> 7.00	–
CCc1nn(C[C@@H](C)COC(=O)c2cccc(F)c2F)c2c1C(=O)NCC1(CCOCC1)C2 [Example 179, [(2R)-3-(3-ethyl-4-oxo-spiro[6,8-dihydro-5H-pyrazolo[4,3-c]azepine-7,4′-tetrahydropyran]-1-yl)-2-methyl-propyl] 2,3-difluorobenzoate]	> 7.00	–
CCc1nn(CCCOC(=O)CCS(C)(=O)=O)c2c1C(=O)NCC1(CCOCC1)C2 [Example 31, 3-(3-ethyl-4-oxo-spiro[6,8-dihydro-5H-pyrazolo[4,3-c]azepine-7,4′-tetrahydropyran]-1-yl)propyl 3-methylsulfonylpropanoate]	< 6.30	–
CCc1nn(CCCOC(=O)c2cccc(C(=O)N(C)C)c2)c2c1C(=O)NCC1(CCOCC1)C2 [Example 153, 3-(3-ethyl-4-oxo-spiro[6,8-dihydro-5H-pyrazolo[4,3-c]azepine-7,4′-tetrahydropyran]-1-yl)propyl 3-(dimethylcarbamoyl)-benzoate]	> 7.00	–
CCc1nn(CC(C)(C)COC(=O)c2ccc(C(N)=O)cc2)c2c1C(=O)NCC1(CCOCC1)C2 [Example 328, [3-(3-ethyl-4-oxo-spiro[6,8-dihydro-5H-pyrazolo[4,3-c]azepine-7,4′-tetrahydropyran]-1-yl)-2,2-dimethyl-propyl] 4-carbamoylbenzoate]	–	> 7.00
CCc1nn(CCCOC(=O)c2cc(Cl)cc(OC)c2)c2c1C(=O)NCC1(CCOCC1)C2 [Example 88, 3-(3-ethyl-4-oxo-spiro[6,8-dihydro-5H-pyrazolo[4,3-c]azepine-7,4′-tetrahydropyran]-1-yl)propyl 3-chloro-5-methoxy-benzoate]	> 7.00	–
CCc1nn(C[C@@H](C)COC(=O)c2ccc(S(=O)(=O)N3CCN(C(C)=O)CC3)cc2)c2c1C(=O)NCC1(CCOCC1)C2 [Example 250, [(2R)-3-(3-ethyl-4-oxo-spiro[6,8-dihydro-5H-pyrazolo[4,3-c]azepine-7,4′-tetrahydropyran]-1-yl)-2-methyl-propyl] 4-(4-acetylpiperazin-1-yl)sulfonylbenzoate]	> 7.00	–
CCc1nn(CC(C)(C)COC(=O)c2ccc(F)cc2)c2c1C(=O)NCC1(CCOCC1)C2 [Example 285, [3-(3-ethyl-4-oxo-spiro[6,8-dihydro-5H-pyrazolo[4,3-c]azepine-7,4′-tetrahydropyran]-1-yl)-2,2-dimethyl-propyl] 4-fluorobenzoate]	–	> 7.00
CCNC(=O)c1cccc(C(=O)OCCCn2nc(CC)c3c2CC2(CCOCC2)CNC3=O)c1 [Example 152, 3-(3-ethyl-4-oxo-spiro[6,8-dihydro-5H-pyrazolo[4,3-c]azepine-7,4′-tetrahydropyran]-1-yl)propyl 3-(ethylcarbamoyl)benzoate]	> 7.00	–
CCc1nn(C[C@@H](C)COC(=O)c2cc(Cl)ccc2C(F)(F)F)c2c1C(=O)NCC1(CCOCC1)C2 [Example 239, [(2R)-3-(3-ethyl-4-oxo-spiro[6,8-dihydro-5H-pyrazolo[4,3-c]azepine-7,4′-tetrahydropyran]-1-yl)-2-methyl-propyl] 5-chloro-2-(trifluoromethyl)benzoate]	> 7.00	–
CCc1nn(C[C@@H](C)COC(=O)c2ccc(C(=O)N3CCCC3)cc2)c2c1C(=O)NCC1(CCOCC1)C2 [Example 257, [(2R)-3-(3-ethyl-4-oxo-spiro[6,8-dihydro-5H-pyrazolo[4,3-c]azepine-7,4′-tetrahydropyran]-1-yl)-2-methyl-propyl] 4-(pyrrolidine-1-carbonyl)benzoate]	> 7.00	–
CCc1nn(CCCOC(=O)c2cc(C(F)(F)F)ccc2F)c2c1C(=O)NCC1(CCOCC1)C2 [Example 112, 3-(3-ethyl-4-oxo-spiro[6,8-dihydro-5H-pyrazolo[4,3-c]azepine-7,4′-tetrahydropyran]-1-yl)propyl 2-fluoro-5-(trifluoromethyl)benzoate]	> 7.00	–
CCc1nn(CC(C)(C)COC(=O)c2cccc(S(=O)(=O)C(C)C)c2)c2c1C(=O)NCC1(CCOCC1)C2 [Example 316, [3-(3-ethyl-4-oxo-spiro[6,8-dihydro-5H-pyrazolo[4,3-c]azepine-7,4′-tetrahydropyran]-1-yl)-2,2-dimethyl-propyl] 3-isopropylsulfonylbenzoate]	–	> 7.00
CCc1nn(CCCOC(=O)c2cccc(F)c2F)c2c1C(=O)NCC1(CCOCC1)C2 [Example 45, 3-(3-ethyl-4-oxo-spiro[6,8-dihydro-5H-pyrazolo[4,3-c]azepine-7,4′-tetrahydropyran]-1-yl)propyl 2,3-difluorobenzoate]	> 7.00	–
CCc1nn(CCCOC(=O)c2ccc(S(=O)(=O)N(C)C)cc2)c2c1C(=O)NCC1(CCOCC1)C2 [Example 131, 3-(3-ethyl-4-oxo-spiro[6,8-dihydro-5H-pyrazolo[4,3-c]azepine-7,4′-tetrahydropyran]-1-yl)propyl 4-(dimethylsulfamoyl) benzoate]	> 7.00	–
CCc1nn(CC(C)(C)COC(=O)c2ccc(Cl)c(C(F)(F)F)c2)c2c1C(=O)NCC1(CCOCC1)C2 [Example 314, [3-(3-ethyl-4-oxo-spiro[6,8-dihydro-5H-pyrazolo[4,3-c]azepine-7,4′-tetrahydropyran]-1-yl)-2,2-dimethyl-propyl] 4-chloro-3-(trifluoromethyl)benzoate]	–	> 7.00
CCc1nn(CCCOC(=O)c2ccccc2O)c2c1C(=O)NCC1(CCOCC1)C2 [Example 17, 3-(3-ethyl-4-oxo-spiro[6,8-dihydro-5H-pyrazolo[4,3-c]azepine-7,4′-tetrahydropyran]-1-yl)propyl 2-hydroxybenzoate]	> 7.00	–
CCc1nn(CC(C)(C)COC(=O)c2cccc(C(=O)N3CCCCC3)c2)c2c1C(=O)NCC1(CCOCC1)C2 [Example 345]	–	> 7.00
CCc1nn(CCCOC(=O)c2ccc(Cl)c(F)c2)c2c1C(=O)NCC1(CCOCC1)C2 [Example 81, 3-(3-ethyl-4-oxo-spiro[6,8-dihydro-5H-pyrazolo[4,3-c]azepine-7,4′-tetrahydropyran]-1-yl)propyl 4-chloro-3-fluoro-benzoate]	> 7.00	–
CCc1nn(C[C@@H](C)COC(=O)c2ccc(C)cc2OC)c2c1C(=O)NCC1(CCOCC1)C2 [Example 187, [(2R)-3-(3-ethyl-4-oxo-spiro[6,8-dihydro-5H-pyrazolo[4,3-c]azepine-7,4′-tetrahydropyran]-1-yl)-2-methyl-propyl] 2-methoxy-4-methyl-benzoate]	> 7.00	–
CCc1nn(C[C@@H](C)COC(=O)c2cccc(S(C)(=O)=O)c2)c2c1C(=O)NCC1(CCOCC1)C2 [Example 213, [(2R)-3-(3-ethyl-4-oxo-spiro[6,8-dihydro-5H-pyrazolo[4,3-c]azepine-7,4′-tetrahydropyran]-1-yl)-2-methyl-propyl] 3-methylsulfonylbenzoate]	> 7.00	–
CCc1nn(CCCOC(=O)c2ccc(C(F)(F)F)cc2Cl)c2c1C(=O)NCC1(CCOCC1)C2 [Example 126, 3-(3-ethyl-4-oxo-spiro[6,8-dihydro-5H-pyrazolo[4,3-c]azepine-7,4′-tetrahydropyran]-1-yl)propyl 2-chloro-4-(trifluoromethyl)benzoate]	> 7.00	–
CCc1nn(CC(C)(C)COC(=O)c2c(F)cccc2Cl)c2c1C(=O)NCC1(CCOCC1)C2 [Example 300, [3-(3-ethyl-4-oxo-spiro[6,8-dihydro-5H-pyrazolo[4,3-c]azepine-7,4′-tetrahydropyran]-1-yl)-2,2-dimethyl-propyl] 2-chloro-6-fluoro-benzoate]	–	> 7.00
CCc1nn(CCCOC(=O)[C@H]2CC[C@@H](O)CC2)c2c1C(=O)NCC1(CCOCC1)C2 [Example 21, 3-(3-ethyl-4-oxo-spiro[6,8-dihydro-5H-pyrazolo[4,3-c]azepine-7,4′-tetrahydropyran]-1-yl)propyl cis-4-hydroxycyclohexane-carboxylate]	6.30 to 7.00	–
